# Reference: patent US10787452B2 (Vertex Pharmaceuticals Incorporated, priority 2012, dated 2020)
# System: HCT116 colorectal cancer cells
# Test: Cisplatin sensitization assay (96 h cell viability MTS);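 also: compound concentration needed to lower the Cisplatin-alone IC50 by a set fold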
# Assay type: cell-based
# Settings: 96 h MTS, compound plus Cisplatin
# In short: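 Full-matrix combination: compound × cisplatin, 2-fold dilutions from 10 μM top final, co-added; 96 h, 37° C, 5% CO2; MTS read-out after 1 h.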
row,Compound,Cisplatin Sensitization Assay
1,"Nc1nn2cc(Cl)cnc2c1C(=O)Nc1cnccc1N1CCN2CCC1CC2 [I-N-56, N-(4-(1,4-diazabicyclo[3.2.2]nonan-4-yl)pyridin-3-yl)-2-amino-6-chloropyrazolo[1,5-a]pyrimidine-3-carboxamide]",++ (Compounds with a Cisplatin sensitization value >0.02 μM but <0.2 μM are marked with “++.”)
2,"Cc1cncc(NC(=O)c2c(N)nn3cc(Cl)cnc23)c1N1CCN(C)CC1 [I-N-57, 2-amino-6-chloro-N-(5-methyl-4-(4-methylpiperazin-1-yl)pyridin-3-yl)pyrazolo[1,5-a]pyrimidine-3-carboxamide]",+++ (Compounds with a Cisplatin sensitization value of <0.02 μM are marked with “+++.”)
3,"Nc1nn2cc(Cl)cnc2c1C(=O)Nc1cnccc1N1CCN(C2COC2)CC1 [I-N-58, 2-amino-6-chloro-N-(4-(4-(oxetan-3-yl)piperazin-1-yl)pyridin-3-yl)pyrazolo[1,5-a]pyrimidine-3-carboxamide]",++ (Compounds with a Cisplatin sensitization value >0.02 μM but <0.2 μM are marked with “++.”)
4,"CN1CCN(c2ccncc2NC(=O)c2c(N)nn3cc(Cl)cnc23)CC1 [I-N-59, 2-amino-6-chloro-N-(4-(4-methylpiperazin-1-yl)pyridin-3-yl)pyrazolo[1,5-a]pyrimidine-3-carboxamide]",++ (Compounds with a Cisplatin sensitization value >0.02 μM but <0.2 μM are marked with “++.”)
5,"COCCN1CCN(c2ccncc2NC(=O)c2c(N)nn3cc(Cl)cnc23)CC1 [I-N-60, 2-amino-6-chloro-N-(4-(4-(2-methoxyethyl)piperazin-1-yl)pyridin-3-yl)pyrazolo[1,5-a]pyrimidine-3-carboxamide]",+++ (Compounds with a Cisplatin sensitization value of <0.02 μM are marked with “+++.”)
6,"CN1CCN2CCN(c3ccncc3NC(=O)c3c(N)nn4cc(Cl)cnc34)CC2C1 (centres unmarked) [I-N-61, 2-amino-6-chloro-N-(4-(8-methylhexahydro-1H-pyrazino[1,2-a]pyrazin-2(6H)-yl)pyridin-3-yl)pyrazolo[1,5-a]pyrimidine-3-carboxamide]",+++ (Compounds with a Cisplatin sensitization value of <0.02 μM are marked with “+++.”)
7,"CC1(N2CCN(c3ccncc3NC(=O)c3c(N)nn4cc(F)cnc34)CC2)COC1 [I-N-62, 2-amino-6-fluoro-N-(4-(4-(3-methyloxetan-3-yl)piperazin-1-yl)pyridin-3-yl)pyrazolo[1,5-a]pyrimidine-3-carboxamide]",++ (Compounds with a Cisplatin sensitization value >0.02 μM but <0.2 μM are marked with “++.”)
8,"CN1CCN(c2ccncc2NC(=O)c2c(N)nn3cc(Cl)cnc23)CC1CO (centres unmarked) [I-N-63, 2-amino-6-chloro-N-(4-(3-(hydroxymethyl)-4-methylpiperazin-1-yl)pyridin-3-yl)pyrazolo[1,5-a]pyrimidine-3-carboxamide]",++ (Compounds with a Cisplatin sensitization value >0.02 μM but <0.2 μM are marked with “++.”)
9,"Nc1nn2cc(Cl)cnc2c1C(=O)Nc1cnccc1N1CCN(C2CC2)CC1 [I-N-64, 2-amino-6-chloro-N-(4-(4-cyclopropylpiperazin-1-yl)pyridin-3-yl)pyrazolo[1,5-a]pyrimidine-3-carboxamide]",+++ (Compounds with a Cisplatin sensitization value of <0.02 μM are marked with “+++.”)
10,"Nc1nn2cc(Cl)cnc2c1C(=O)Nc1cnccc1N1CCN2CCC[C@@H]2C1 [I-N-65, (R)-2-amino-6-chloro-N-(4-(hexahydropyrrolo[1,2-a]pyrazin-2(1H)-yl)pyridin-3-yl)pyrazolo[1,5-a]pyrimidine-3-carboxamide]",+ (Compounds with a Cisplatin sensitization value >0.2 μM but <5 μM are marked with “+.”)
11,"CC1(O)CCN(c2ccncc2NC(=O)c2c(N)nn3cc(Cl)cnc23)CC1 [I-N-66, 2-amino-6-chloro-N-(4-(4-hydroxy-4-methylpiperidin-1-yl)pyridin-3-yl)pyrazolo[1,5-a]pyrimidine-3-carboxamide]",+++ (Compounds with a Cisplatin sensitization value of <0.02 μM are marked with “+++.”)
